In data set [1] the target is T1, ATP-binding cassette (ABC) subfamily G member 2 (ABCG2) (Homo sapiens, UniProt Q9UNQ0).
T1 construct: ABCG2-transfected R482-HEK293 cells
T1 sequence (Q9UNQ0 1-655): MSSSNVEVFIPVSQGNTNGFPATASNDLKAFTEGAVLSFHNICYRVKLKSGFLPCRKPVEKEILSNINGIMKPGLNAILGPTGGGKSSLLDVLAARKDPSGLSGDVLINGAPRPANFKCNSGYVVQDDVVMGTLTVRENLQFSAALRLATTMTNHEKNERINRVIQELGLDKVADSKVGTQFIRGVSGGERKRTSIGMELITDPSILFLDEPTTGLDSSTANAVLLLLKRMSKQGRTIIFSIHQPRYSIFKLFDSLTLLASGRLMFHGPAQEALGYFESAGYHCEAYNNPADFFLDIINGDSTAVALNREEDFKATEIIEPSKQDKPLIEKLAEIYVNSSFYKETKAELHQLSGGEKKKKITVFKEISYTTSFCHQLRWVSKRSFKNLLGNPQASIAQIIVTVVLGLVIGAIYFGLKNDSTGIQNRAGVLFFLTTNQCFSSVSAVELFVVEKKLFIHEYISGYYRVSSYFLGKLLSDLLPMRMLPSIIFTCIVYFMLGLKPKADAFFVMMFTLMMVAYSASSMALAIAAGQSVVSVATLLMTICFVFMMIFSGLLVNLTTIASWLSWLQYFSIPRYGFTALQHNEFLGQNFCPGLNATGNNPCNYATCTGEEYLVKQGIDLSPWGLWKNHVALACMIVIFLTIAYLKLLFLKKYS
The data set is described as follows: flow cytometry of ABCG2-mediated efflux in parental and ABCG2-transfected HEK293 cells. In kind it is cell-based. (In general: In flow cytometry, cells or beads pass a laser one at a time.)

Data set [2] has as its target T1, ATP-binding cassette (ABC) subfamily G member 2 (ABCG2). Description: flow cytometry inhibition of pheophorbide A efflux in ABCG2-transfected HEK293 cells (also S1-M1-80 and H460-MX20). The data set is classed as cell-based. The source says:
flow cytometry inhibition of pheophorbide A efflux in ABCG2-transfected HEK293 cells (also S1-M1-80 and H460-MX20) on ATP-binding cassette (ABC) subfamily G member 2 (ABCG2) | TP-3654 inhibited ABCG2-mediated efflux of PhA in ABCG2-transfected R482-HEK293 cells

Consider two compounds from paper PMC8431370, “The Second-Generation PIM Kinase Inhibitor TP-3654 Resensitizes ABCG2-Overexpressing Multidrug-Resistant Cancer Cells to Cytotoxic Anticancer Drugs” (International Journal of Molecular Sciences, 2021).

As for `C=Cc1c(C)c2cc3nc(c4c5[nH]c(cc6nc(cc1[nH]2)C(C)=C6CC)c(C)c5C(=O)[C@@H]4C(=O)OC)[C@@H](CCC(=O)O)[C@@H]3C` [pheophorbide A], the “flow cytometry of ABCG2-mediated efflux in parental and ABCG2-transfected HEK293” value in data set [1] is “Flow cytometry analysis of PhA accumulation in parental HEK293 cells and ABCG2-transfected R482-HEK293 cells”.

In the case of `CC(C)(O)[C@H]1CC[C@H](Nc2ccc3ncc(-c4cccc(C(F)(F)F)c4)n3n2)CC1` [TP-3654], the IC50 in data set [2] was ~0.14 µM.

The IC50 is the concentration needed to halve the response being measured. A higher IC50 goes with a need for much substance.
